Results taken from patent US11066379B2 (THE TEXAS A&M UNIVERSITY SYSTEM, priority 2018, dated 2021).
Values joined by “and” are separate entries in the source; they are usually repeats but may differ in a detail not shown here. Equal entries are not always repeated. “Also recorded” adds a separate entry of the source.

What was measured:
SH-SY5Y cells [1] = assay: Cellular toxicity in SH-SY5Y cells (MTT, 24 h); assay type: cell-based; details: 24 h; for cytotoxicity toward SH-SY5Y cells: 10-0.01 μM, in words
Source text: (§1) The MTT (3-[4,5-dimethylthiazol-2-yl]-2,5-diphenyltetrazoliumbromide) assay was used to determine the cytotoxicity of gracilin derivatives in T lymphocytes (Burton, J. D. Methods Mol. Med., 2005, 110, 69-78) and SH-SY5Y cells and the protective effect of these compounds against H2O2 insult in neuroblastoma cells as previously described (Leiros, M., Alonso, E., Sanchez, J. A., Rateb, M. E., Ebel, R., Houssen, W. E., Jaspars, M., Alfonso, A. and Botana, L. M. ACS Chem. Neurosci., 2014, S, 71-80). Human T lymphocytes were cultured in 24 well plates at the concentration of 2.5×10^6 cells/mL and exposed to different compound concentrations (0.01, 0.1, 1 and 10 μM) added to the culture medium. Human T cells were maintained in the presence of the pure compound at 37° C. in humidified 5% CO2/95% air atmosphere for 48 h.
(§2) SH-SY5Y cells were seeded in 96-well plates at a density of 2.5×10^5 cells/mL and allowed to adhere for 24 h. At first, cells were treated only with compounds at concentrations ranging from 10-0.01 μM for 24 h to determine their possible cytotoxic effects. Experiments were carried out three times. For neuroprotective experiments, cells were treated with compounds at non-toxic concentrations (1 μM→1 nM) and 150 μM H2O2 for 6 h. Briefly, cells were washed three times with saline solution and 200 μL of MTT (500 μg/mL) dissolved in saline buffer were added to each well. Following 1 h of incubation at 37° C., the cells were disaggregated with sodium dodecyl sulphate at 5%.
Absorbance of formazan crystals was measured at 595 nm with a spectrophotometer plate reader. Saponin was used as death control and its absorbance was subtracted from the other data. All experiments were performed four times.

SH-SY5Y cells [2] = assay: Glutathione assay (Thiol Tracker Violet) after H2O2; assay type: cell-based, human; details: 150 μM H2O2 co-treatment 6 h, two or more concentrations
Procedure: Glutathione (GSH) levels were determined using Thiol Tracker Violet dye, which reacts with reduced thiols in cells. Reduced glutathione represents the majority of intracellular free thiols, so this probe can be used to estimate its levels in cells. Measurements were performed following manufacturer's protocol. Cells were seeded in 96-well plates at 2.5×10^5 cells/mL for 24 h and treated with compounds at various concentrations (1 μM→1 nM) and 150 μM H2O2. After 6 h, SH-SY5Y cells were washed twice with PBS and loaded with 100 μL of prewarmed Thiol Tracker Violet dye (10 μM) for 30 min at 37° C. The fluorescence was measured at 404 nm excitation and emission at 526 nm. All experiments were performed four times.

[3] = test system: mitochondrial membrane permeability transition pore (mPTP) in SH-SY5Y cells; assay: Mitochondrial membrane permeability transition pore (mPTP) measurement, TBHP-induced opening; assay type: cell-based, human; details: 1 mM TBHP
Procedure: The blockage of mPTP by compounds was determined with the MitoProbe Transition Assay Kit following manufacturer's instructions. Briefly, SH-SY5Y human neuroblastoma cells were re-suspended in pre-warmed PBS/Ca^+2 buffer at a final concentration of 1×10^6 cells/mL. Cells were loaded with 0.01 μM Calcein-AM and incubated at 37° C. for 15 min. Then, 0.4 mM CoCl2 and compounds at selected concentrations were added and incubated for 15 min at 37° C. […] After this incubation, cells were centrifuged and re-suspended in 100 μL of PBS. Just before analyzing, 1 mM tert-butyl hydroperoxide (TBHP) was added to the samples to induce pore opening. Fluorescence intensity was measured at 488 nm excitation and 517 nm emission wavelengths by flow cytometry using the ImageStreamMKII (Amnis Corporation, Merck-Millipore) and […] software. The fluorescence of 10,000 events was analyzed with IDEASR Application vs 6.0 (Amnis Corporation, Merck-Millipore). Experiments were carried out four times.

SHSY5Y cells = assay: Neuroprotective effects summarised over all five assays (viability, TMRM, ROS, GSH, mPTP); assay type: cell-based, human; details: 0.001, 0.01 or 0.1 μM; H2O2 challenge
Procedure: As described previously, neuroprotective agents can mediate their effects through inhibition of CypD, an isoform of CypA. […] All assays were performed at the indicated concentrations (0.001, 0.01, or 0.1 μM) based on initial cytotoxicity determined with SHSY5Y cells (Table 1).

CypD = CypD (Homo sapiens, UniProt P30405); assay: CypD enzyme inhibition assay (PPIase activity); assay type: biochemical; details: CypD 1 nM
Procedure: The inhibition of the peptidyl-prolyl cis-trans isomerase (PPIase) activity of compounds was determined by following the rate of hydrolysis of N-succinyl-Ala-Ala-Pro-Phe-pnitroanilide by chymotrypsin. CsA was used as positive control. The assay was performed as previously described (Yan, W., Qing, J., Mei, H., Nong, J., Huang, J., Zhu, J., Jiang, H., Liu, L., Zhang, L. and Li, J. Bioorg. Med. Chem. Lett., 2015, 25, 5682-5686) with small modifications. The assay buffer (20 mM Tris-HCl, 50 mM NaCl, pH 7.8), CypD (1 nM) and the compounds at concentrations ranging from 0.001 to 10 μM were pre-cooled at 4° C. for 1 h. After that time, chymotrypsin at 0.4 mg/mL in 1 mM HCl was added to each well. The reaction was initiated by the addition of the peptide (0.1 mg/mL in 500 mM LiCl in THF). The absorbance at 380 nm was monitored every 30 sec for 5 min with a spectrophotometer plate reader. The blank rates of hydrolysis (in absence of CypD) were subtracted from the rates in the presence of the enzyme. The half-maximal inhibitory concentration (IC50) was calculated by fitting the data with a log(inhibitor) vs. response model of GraphPad Prism 5.0 software. All experiments were performed four times.

SH-SY5Y cells [4] = assay: Intracellular ROS levels (carboxy-H2DCFDA) after H2O2; assay type: cell-based, human; details: 150 μM H2O2 co-treatment 6 h
Procedure: Intracellular levels of reactive oxygen species (ROS) were determined with carboxy-H2DCFDA (5-(and-6)-carboxy-2′,7′-dichlorodihydrofluorescein diacetate). This dye diffuses through the cellular membrane and is converted by cellular esterases to carboxy-H2DCFH (non-fluorescent). When carboxy-H2DCFH is oxidized by ROS, it becomes fluorescent (Halliwell, B. and Whiteman, M. Br. J. Pharmacol., 2004, 142, 231-255). Cells were seeded at a density of 2.5×10^5 cells/mL in 96-well plates and allowed to attach for 24 h. Following treatment with compounds at various concentrations (1 μM→1 nM) and 150 μM H2O2 for 6 h, SH-SY5Y cells were washed twice with serum-free culture medium. Then, carboxy-H2DCFDA 20 μM dissolved in serum-free culture medium was added to each well and the cells were incubated for 1 h at 37° C. After this incubation, the medium with the fluorescent dye was replaced with PBS and the plate was incubated for 30 min at 37° C. Fluorescence was read at 527 nm, with an excitation wavelength of 495 nm. All experiments were performed four times.

SH-SY5Y cells [5] = assay: Neuroprotection against H2O2 toxicity, cell viability by MTT; assay type: cell-based, human; details: 150 μM H2O2 co-treatment 6 h; 0.01, 0.1 and 1 μM
Procedure: as §2, with “5%. Absorbance of formazan crystals was measured at 595 nm with a spectrophotometer plate reader. Saponin was used as death control and its absorbance was subtracted from the other data. All experiments were performed four times.” for “5%.”

CypA = target: T1, CypA (Homo sapiens, UniProt P62937); assay: CypA PPIase activity inhibition; assay type: biochemical; details: up to 10 μM, in words
T1 construct: Active human CypA full-length protein was from Abcam; purchased Abcam

[6] = target: T2, active human CypA protein (Homo sapiens, UniProt P62937); assay: Binding to immobilized CypA by surface plasmon resonance (SPR); details: SPR, immobilized CypA
T2 construct: Active human CypA full-length protein was from Abcam; purchased Abcam
Procedure: Sensor surface activation and ligand immobilization were performed by using HBS-EP as running buffer at a flow rate of 5 μL/min and 25° C. CM5 sensor chips were used as surface where Cyp A or D was immobilized as ligand. The CM5 chip is a glass slide coated with a thin layer of gold with a matrix of carboxymethylated dextran covalently attached. The CM5 chip was activated using an amine coupling kit. […] After activation, the ligand, 100 μg/mL of active human CypA protein dissolved in sodium acetate 10 mM at pH 4.5 was added to be immobilized over a CM5 sensor chip. Finally ethanolamine-HCl was injected to deactivate the remaining active esters and to avoid non-specific binding. […] Once analytes were tested and interaction was observed, individual binding curves were analyzed by determining the kinetic constants of analytes-CypA binding, namely, the observed rate constant (Kobs), the association rate constant (Kass), the dissociation rate constant (Kdiss), and the kinetic equilibrium dissociation constant (KD). At equilibrium, by definition, […]. The pseudo-first order association rate constants Kobs (s^-1) were determined for each compound concentration by using the 1:1 Langmuir association model of BiaEvaluation software (BiaCore, Uppsala, Sweden). Then a representation of Kobs against the corresponding concentration of each compound was done. […] From the equation of these representations, Kass, M^-1 s^-1, gradient of the plot, and […]^-1, intercept of the plot was obtained. Within these two values, the kinetic equilibrium dissociation constant KD for each analyte-CypA binding was obtained. The duration of the sample injection was 2 min at 10 μL/min flow rate. Next, dissociation of bound molecules in HBS-EP buffer flow was studied. The bound drugs were removed from the chip surface before the next injection by adding 1 M Glycine-HCl at pH 2.5 for 1 min. The association phase was used to quantify the compound-CypA or D interactions. All experiments were performed four times.

[7] = Viability of human T lymphocytes (MTT assay, 48 h); assay type: cell-based; details: human; 1 μM, 48 hours; read-out: decrease in cell viability
Source text: as §1
(§3) Saponin was used as cellular death control and its absorbance was subtracted from the other data. After the incubation period with compounds, assay was performed. First cells were centrifuged (1500 rpm, 5 min, 4° C.). The pellets were resuspended in saline solution with MTT (250 μg/mL) and then incubated at 37° C. during 30 min. After washing off excess MTT twice with saline solution, cells were disaggregated with H2O and sonicated for 1 min and the absorbance of the colored formazan salt was measured at 595 nm in a spectrophotometer plate reader. All experiments were performed three times.

human T lymphocytes = assay: Viability of human T lymphocytes (MTT assay, 48 h); assay type: cell-based; details: in words
Source text: as §1, §3

[8] = test system: Interleukin-2 (IL-2) production in human T lymphocytes; assay: Interleukin-2 release in Con A-stimulated human T lymphocytes (ELISA); assay type: cell-based; details: 2 h pre-treatment at non-toxic concentration, Con A 50 μg/mL 48 h
Procedure: Then, cells were stimulated with Concanavalin A (Con A) at 50 μg/mL for 48 h to induce IL-2 release. The amount of IL-2 released to the culture medium was evaluated using Human IL-2 ELISA kit. Experiments were carried out four times.

EGF-R = EGF-R (Homo sapiens, UniProt P00533); details: 100 μM; cited from earlier work
Chain of EGF-R (P00533 25-1210, species assumed): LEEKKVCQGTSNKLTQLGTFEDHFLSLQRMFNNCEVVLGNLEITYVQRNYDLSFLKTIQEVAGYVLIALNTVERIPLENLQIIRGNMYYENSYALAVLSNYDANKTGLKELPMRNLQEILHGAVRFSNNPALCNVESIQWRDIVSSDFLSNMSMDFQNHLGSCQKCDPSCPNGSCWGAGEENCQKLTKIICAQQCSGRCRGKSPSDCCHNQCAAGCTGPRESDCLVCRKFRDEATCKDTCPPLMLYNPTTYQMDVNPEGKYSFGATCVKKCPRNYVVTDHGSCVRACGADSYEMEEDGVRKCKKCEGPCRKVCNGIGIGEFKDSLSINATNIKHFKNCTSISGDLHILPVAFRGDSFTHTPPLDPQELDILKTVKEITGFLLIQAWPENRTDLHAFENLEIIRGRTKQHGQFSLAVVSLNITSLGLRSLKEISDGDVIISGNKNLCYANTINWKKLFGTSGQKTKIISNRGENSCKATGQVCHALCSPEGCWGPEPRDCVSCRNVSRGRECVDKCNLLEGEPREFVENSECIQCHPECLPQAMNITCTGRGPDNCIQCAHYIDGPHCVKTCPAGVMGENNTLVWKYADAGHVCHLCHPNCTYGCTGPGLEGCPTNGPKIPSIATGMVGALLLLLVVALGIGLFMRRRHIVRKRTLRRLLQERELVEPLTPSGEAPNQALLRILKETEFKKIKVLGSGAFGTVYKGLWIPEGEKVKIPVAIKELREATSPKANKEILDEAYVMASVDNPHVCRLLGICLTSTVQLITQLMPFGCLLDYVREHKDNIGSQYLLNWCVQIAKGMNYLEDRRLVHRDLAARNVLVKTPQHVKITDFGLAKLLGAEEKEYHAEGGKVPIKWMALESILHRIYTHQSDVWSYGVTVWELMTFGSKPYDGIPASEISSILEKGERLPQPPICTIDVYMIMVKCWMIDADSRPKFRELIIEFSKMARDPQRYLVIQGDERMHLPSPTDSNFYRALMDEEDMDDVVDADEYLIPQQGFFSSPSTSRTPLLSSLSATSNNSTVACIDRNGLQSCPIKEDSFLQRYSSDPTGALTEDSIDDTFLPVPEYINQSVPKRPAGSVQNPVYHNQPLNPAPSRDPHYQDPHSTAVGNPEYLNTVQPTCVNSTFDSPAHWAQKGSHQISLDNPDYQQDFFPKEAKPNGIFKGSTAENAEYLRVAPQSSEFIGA

Chain of CypD (P30405 30-207): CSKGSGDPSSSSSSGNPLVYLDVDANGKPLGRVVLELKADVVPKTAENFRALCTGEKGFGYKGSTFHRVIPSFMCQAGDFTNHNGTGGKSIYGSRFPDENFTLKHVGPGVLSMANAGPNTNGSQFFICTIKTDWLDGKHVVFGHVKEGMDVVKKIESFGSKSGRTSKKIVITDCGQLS
T2 sequence (P62937 whole entry): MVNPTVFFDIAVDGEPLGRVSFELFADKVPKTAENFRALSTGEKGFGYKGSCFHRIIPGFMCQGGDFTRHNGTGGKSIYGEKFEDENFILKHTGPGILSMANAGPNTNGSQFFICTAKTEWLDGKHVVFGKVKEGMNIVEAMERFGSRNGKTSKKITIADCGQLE
T1 sequence (P62937 whole entry): as above

| SMILES | cytotoxicity toward SH-SY5Y cells (SH-SY5Y cells [1]) | GSH levels (SH-SY5Y cells [2]) | mPTP opening [3] | neuroprotective / antioxidant effects based on all five assays (SHSY5Y cells) | IC50 (CypD) | ROS levels (SH-SY5Y cells [4]) | protection of cell viability against H2O2 insult (SH-SY5Y cells [5]) | CypA PPIase inhibitory activity (CypA) | IC50 (SH-SY5Y cells [1]; Homo sapiens, SH-SY5Y, read-out: IC50 (cellular toxicity)) [µM] | Kd [6] | cytotoxicity at 48 h, 1 μM [7] [%] | impact on T-cell viability (human T lymphocytes) | Inhibition of IL-2 production [8] [%] | EGF-R inhibition (EGF-R) [%] |
| --- | --- | --- | --- | --- | --- | --- | --- | --- | --- | --- | --- | --- | --- | --- |
| CC(=O)OC[C@@H]1CCC(C2(C)CCCCC2)=C[C@@H]1COC(C)=O [Compound 27b, ((3S,4R)-1′-methyl-[1,1′-bi(cyclohexan)]-1-ene-3,4-diyl)bis(methylene) diacetate] | led to cell death at the higher concentrations tested | recovered GSH levels | prevent TBHP-induced opening | displayed significant neuroprotective effects; also recorded: significant antioxidant activity in all five assays | 0.48 µM and < 0.5 µM | diminishing ROS at two or three concentrations | protected cells against H2O2 insult at almost all concentrations | inactive |  |  |  |  |  |  |
| CC(=O)O[C@H]1OC[C@@H]2C=C([C@]3(C)CCCC(C)(C)C3)CC[C@H]12 [Compound 29b, (1R,3aR,7aS)-5-(1,3,3-trimethylcyclohexyl)-1,3,3a,6,7,7a-hexahydroisobenzofuran-1-yl acetate] | led to cell death at the higher concentrations tested |  |  |  |  |  |  |  | 7.9 | ~3 µM and 2.8 to 6.8 µM | 15 to 25 | relatively non-toxic | ~0 |  |
| C/C=C1\C([C@@]2(C)CCCC(C)(C)C2)=CC[C@H]2[C@H](OC(C)=O)O[C@H](OC(C)=O)[C@@H]12 [gracilin A, reference compound] |  |  |  |  |  |  |  |  |  | 2.53 ± 0.4 µM |  |  |  | 70 |
